Assay results as given in paper PMC3034309 (European journal of pharmacology, 2011).

Tests used:
[1] = molecular target: human cannabinoid CB1 receptors (Homo sapiens, UniProt P21554); experiment: Inhibition of forskolin-stimulated cyclic AMP production in CHO cells; format: cell-based; conditions: read-out: Emax, inhibition of forskolin-induced stimulation of cyclic AMP
cannabinoid CB1 receptor [2] = molecular target: T1, cannabinoid CB1 receptor (Rattus norvegicus, UniProt P20272); experiment: [3H]CP55,940 binding, cannabinoid CB1 receptor, rat cerebellar membranes; conditions: read-out: Ki (nM) CB1, 1 nM [3H]CP55,940, mean ± S.E.M.
T1 sequence (P20272 whole entry): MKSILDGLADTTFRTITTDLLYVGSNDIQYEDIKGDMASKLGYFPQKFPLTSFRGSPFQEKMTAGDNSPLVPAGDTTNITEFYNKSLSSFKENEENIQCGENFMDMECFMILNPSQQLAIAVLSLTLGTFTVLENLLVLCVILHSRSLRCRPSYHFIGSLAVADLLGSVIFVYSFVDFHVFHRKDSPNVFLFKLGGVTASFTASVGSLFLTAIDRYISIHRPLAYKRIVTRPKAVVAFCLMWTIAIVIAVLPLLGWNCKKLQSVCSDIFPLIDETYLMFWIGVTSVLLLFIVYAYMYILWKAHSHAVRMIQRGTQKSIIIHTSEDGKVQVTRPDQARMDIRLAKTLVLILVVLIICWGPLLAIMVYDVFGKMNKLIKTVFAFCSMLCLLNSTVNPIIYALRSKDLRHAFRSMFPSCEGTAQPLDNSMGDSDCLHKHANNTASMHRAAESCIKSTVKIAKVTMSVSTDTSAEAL

[3] = molecular target: mouse cannabinoid CB2 receptors (Mus musculus, UniProt P47936); experiment: [3H]CP55,940 binding, cannabinoid CB2 receptor, CB2-CHO cell membranes; conditions: for better affinity for cannabinoid CB2 receptors than for CB1: ratio of CB1 to CB2 affinity; for Ki: read-out: Ki (nM) CB2, CB2-CHO cell membranes, 1 nM [3H]CP55,940, mean ± S.E.M.
Chain of mouse cannabinoid CB2 receptors (P47936 whole entry): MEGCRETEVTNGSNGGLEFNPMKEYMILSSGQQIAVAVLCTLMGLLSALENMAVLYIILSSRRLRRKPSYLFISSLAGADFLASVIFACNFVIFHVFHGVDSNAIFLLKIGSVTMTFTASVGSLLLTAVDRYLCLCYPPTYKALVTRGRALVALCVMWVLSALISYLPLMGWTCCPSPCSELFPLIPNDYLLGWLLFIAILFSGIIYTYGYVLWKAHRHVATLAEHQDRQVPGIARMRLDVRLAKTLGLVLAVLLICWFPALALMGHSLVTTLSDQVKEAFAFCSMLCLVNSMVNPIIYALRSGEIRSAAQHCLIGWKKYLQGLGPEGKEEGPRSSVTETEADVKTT

ICR mice [4] = experiment: Rectal temperature; conditions: i.v., 95% confidence limits in parentheses
ICR mice [5] = experiment: Tail flick antinociception; conditions: for ED50 TF (tail flick antinociception): mice, i.v., 95% confidence limits in parentheses
ICR mice [6] = experiment: Suppression of spontaneous activity; conditions: i.v.; for ED50 SA (suppression of spontaneous activity): 95% confidence limits in parentheses
ICR mice [7] = experiment: Mouse in vivo screening test battery as a whole, agonist tests
cannabinoid CB1 receptor [8] = molecular target: T1, cannabinoid CB1 receptor; experiment: Agonist-stimulated [35S]GTPγS binding in rat cerebellar membranes; format: biochemical
[9] = test system: mouse isolated vas deferens; experiment: Mouse vas deferens procedure; conditions: for dextral shift of WIN 55,212-2 log concentration response curve: 95% confidence limits in parentheses; for mean change in twitch height: compound alone
ICR mice [10] = experiment: Mouse feeding experiment; format: in vivo; conditions: mice food deprived for 24 hr, injected i.p. 30 min before 1 h session
ICR mice [11] = experiment: Locomotor trials associated with the feeding experiment; format: in vivo, mouse; conditions: 10 and 30 mg/kg doses, i.p., 30 min before 10-min test
C57/Bl6J mice = experiment: Δ9-tetrahydrocannabinol drug discrimination in mice; format: in vivo, mouse; conditions: mice trained to discriminate 5.6 mg/kg Δ9-tetrahydrocannabinol from vehicle, s.c.
ICR mice [12] = experiment: Antagonist tests in the mouse in vivo test battery

Chain of human cannabinoid CB1 receptors (P21554 whole entry): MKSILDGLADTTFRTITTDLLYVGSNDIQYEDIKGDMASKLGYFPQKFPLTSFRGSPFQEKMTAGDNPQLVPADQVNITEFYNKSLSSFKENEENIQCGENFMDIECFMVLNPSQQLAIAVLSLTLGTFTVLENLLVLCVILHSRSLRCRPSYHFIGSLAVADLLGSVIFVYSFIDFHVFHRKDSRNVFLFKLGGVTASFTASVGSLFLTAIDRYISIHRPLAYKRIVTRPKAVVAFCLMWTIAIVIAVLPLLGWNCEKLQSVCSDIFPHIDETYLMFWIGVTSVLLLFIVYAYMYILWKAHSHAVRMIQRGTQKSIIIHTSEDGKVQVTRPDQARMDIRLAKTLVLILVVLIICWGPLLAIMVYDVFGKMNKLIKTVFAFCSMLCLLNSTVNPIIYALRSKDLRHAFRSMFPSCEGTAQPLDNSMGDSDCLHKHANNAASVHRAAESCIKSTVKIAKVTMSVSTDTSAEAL

## CCCCCCC(C)(C)c1ccc([C@@H]2C[C@H](O)CC[C@H]2CCCO)c(O)c1 [CP55,940, (−)-cis-3-[2-hydroxy-4(1,1-dimethyl-heptyl)phenyl]-trans-4-(3-hydroxy-propyl)cyclohexanol]
[1]
  Emax: 74.4%

## CCS(=O)(=O)NCCCCC(C)(C)c1cc(O)c2c(c1)OC(C)(C)C1CC=C(C)CC21 (centres unmarked) [O-2113]
Cannabinoid CB1 receptor [2]
  Ki: 1.7 ± 0.3 nM
[3]
  better affinity for cannabinoid CB2 receptors than for CB1: 21 fold
  Ki: 0.08 ± 0.02 nM
ICR mice [4]
  ED50 RT (rectal temperature): 1.4 (0.3-4.6) mg/kg
ICR mice [5]
  ED50 TF (tail flick antinociception): 0.3 (0.1-1) mg/kg
ICR mice [6]
  ED50 SA (suppression of spontaneous activity): 0.4 (0.1-1.8) mg/kg

## CCCCS(=O)(=O)NCCCC#CCc1cc(O)c2c(c1)OC(C)(C)C1CC=C(C)CC21 (centres unmarked) [O-1993]
Cannabinoid CB1 receptor [2]
  Ki: 70 ± 10 nM
[3]
  Ki: 86 ± 7 nM
ICR mice [4]
  ED50 RT (rectal temperature): 12 (9-15) mg/kg
ICR mice [5]
  ED50 TF (tail flick antinociception): 14 (7-27) mg/kg
ICR mice [7]; across the three in vivo tests (SA, TF, RT)
  decrease of in vivo potencies as compared to O-1991: 4- to 14 fold
ICR mice [6]
  ED50 SA (suppression of spontaneous activity): 8 (3-16) mg/kg

## CC1=CC[C@@H]2[C@@H](C1)c1c(O)cc(CC#CCCCNS(C)(=O)=O)cc1OC2(C)C [O-2050]
Cannabinoid CB1 receptor [2]
  Ki: 2.5 ± 0.4 nM
[3]
  better affinity for cannabinoid CB2 receptors than for CB1: 12 fold
  Ki: 0.2 ± 0.1 nM
Cannabinoid CB1 receptor [8]; compound alone, rat cerebellar membranes
  maximum stimulation of [35S]GTPγS binding: 11 ± 3%
Cannabinoid CB1 receptor [8]; in presence of 1000 nM CP55,940
  stimulation by CP 55,940 that was not blocked: 11 ± 6%
[9]; 1 nM O-2050
  dextral shift of WIN 55,212-2 log concentration response curve: 2.8 (1.7 - 4.4)
[9]; 10 nM O-2050
  dextral shift of WIN 55,212-2 log concentration response curve: 7.5 (4.1 - 13)
[9]; 31.62 nM O-2050
  dextral shift of WIN 55,212-2 log concentration response curve: 15.0 (9.9 - 21.9)
[9]; 100 nM O-2050
  dextral shift of WIN 55,212-2 log concentration response curve: 103.9 (60.0 - 180.7)
[9]; 30 min after 1 nM
  mean change in twitch height: 6.03±6.21%
[9]; 30 min after 10 nM
  mean change in twitch height: −0.45±5.9%
[9]; 30 min after 31.62 nM
  mean change in twitch height: 3.39±9.4%
[9]; 30 min after 100 nM
  mean change in twitch height: 3.8±8.1%
[9]; 30 min after 1000 nM
  mean change in twitch height: 6.19±16.4%
[9]; interaction with WIN 55,212-2
  Schild plot slope: 0.83±0.18
[9]; read-out: mean KB value, antagonism of WIN 55,212-2
  Kb: 1 ± 0.1 nM
ICR mice [10]
  food intake: significant and dose-dependent decreases in food intake
ICR mice [11]
  locomotor activity: significant locomotor stimulation
C57/Bl6J mice
  Δ9-tetrahydrocannabinol-like discriminative stimulus effects: produced discriminative stimulus effects that were similar to those of Δ^9-tetrahydrocannabinol
ICR mice [12]; 30 mg/kg injected 24 hr prior to 3 mg/kg Δ9-tetrahydrocannabinol, data not shown
  delayed antagonist effects: did not have delayed antagonist effects
ICR mice [12]; doses of up to 3 and 10 mg/kg i.v., vs 1 mg/kg WIN 55,212-2, data not shown
  antagonism of in vivo effects of WIN 55,212-2: did not antagonize
ICR mice [12]; doses up to 30 mg/kg i.v., vs 3 mg/kg Δ9-tetrahydrocannabinol i.v.
  antagonism of in vivo pharmacological effects of Δ9-tetrahydrocannabinol: did not antagonize
ICR mice [5]; 10 μg i.c.v., with dimethyl sulfoxide i.v.
  increase in antinociception as compared to vehicle: 2 fold
ICR mice [7]; mice, i.v., up to 30 mg/kg
  activity in the battery of three in vivo tests: not active in any of the three in vivo tests
ICR mice [6]; 30 mg/kg (highest dose)
  SA: percent effect at the highest dose: 69% @ 30

## CCS(=O)(=O)NCCCC#CCc1cc(O)c2c(c1)OC(C)(C)[C@@H]1CC=C(C)C[C@@H]21 [O-1991]
Cannabinoid CB1 receptor [2]
  Ki: 30 ± 13 nM
[3]
  better affinity for cannabinoid CB2 receptors than for CB1: 21 fold
  Ki: 1.4 ± 0.2 nM
ICR mice [4]
  ED50 RT (rectal temperature): 0.8 (0.4-1.6) mg/kg
ICR mice [5]
  ED50 TF (tail flick antinociception): 0.9 (0.6-1.4) mg/kg
ICR mice [6]
  ED50 SA (suppression of spontaneous activity): 2 (1-3) mg/kg
